Data taken from patent US11286241B2, “Compositions and methods for treating cancer” (GLAX LLC, priority 2018, dated 2022).
Entries after “also recorded” stand apart in the source; their conditions may differ.

Experiments:
brain cancer stem cells = experiment: Cell viability of brain cancer stem cells (FIG. 15); assay type: cell-based, human
[1] = tested on: human breast cancer cells; experiment: Cell viability of human breast cancer cells (FIG. 12D); assay type: cell-based
[2] = tested on: human breast cancer cells; experiment: Combination cell viability in human breast cancer cells (FIG. 17); assay type: cell-based
[3] = tested on: prostate cancer xenograft; experiment: Xenografted tumor growth, prostate cancer model (FIG. 18); assay type: in vivo
[4] = tested on: prostate cancer PC-3 cells; experiment: Apoptosis in prostate cancer cells (FIG. 14); assay type: cell-based
human brain cancer cells = experiment: Cell viability of human brain cancer cells (FIG. 15); assay type: cell-based
[5] = tested on: hepatocarcinoma (HCC)/liver cancer cells; experiment: Cell viability of hepatocarcinoma cells (FIG. 13); assay type: cell-based
[6] = tested on: pancreatic cancer xenograft; experiment: Xenografted tumor growth, pancreatic cancer model (FIG. 18); assay type: in vivo
liver cancer HEPG2 cells = experiment: Apoptosis in liver cancer HEPG2 cells; assay type: cell-based
human normal hepatocytes = experiment: Cell viability of normal hepatocytes (FIG. 13); assay type: cell-based
[7] = tested on: Gli1, Patched-1, Cyclin D1, Bcl-2, and Nanog; experiment: Expression of Gli target genes in breast cancer cells (FIG. 12F); assay type: cell-based
[8] = tested on: prostate cancer DU145 cells; experiment: Combination apoptosis in prostate cancer DU145 cells; assay type: cell-based; conditions: with PF05212384
[9] = tested on: pancreatic cancer AsPC-1 cells; experiment: Apoptosis in pancreatic cancer AsPC-1 cells; assay type: cell-based
lung cancer A549 cells = experiment: Apoptosis in lung cancer cells (FIG. 14); assay type: cell-based
Gli reporter = Gli reporter activity (FIG. 12E); assay type: cell-based
[10] = tested on: colorectal cancer HCT116 cells; experiment: Combination apoptosis in colorectal cancer HCT116 cells; assay type: cell-based; conditions: with PF05212384, listed as SST7
[11] = tested on: prostate cancer PC-3 cells; experiment: Combination apoptosis in prostate cancer PC-3 cells; assay type: cell-based; conditions: with PF05212384
[12] = tested on: human pancreatic cancer cells; experiment: Cell viability of human pancreatic cancer cells (FIG. 12A, B); assay type: cell-based
breast cancer xenograft = experiment: Xenografted tumor growth, breast cancer model (FIG. 18); assay type: in vivo
[13] = tested on: human normal pancreatic ductal epithelial (HPNE) cells; experiment: Cell viability of normal pancreatic ductal epithelial cells (FIG. 12C); assay type: cell-based
[14] = tested on: human normal ductal epithelial (HMEC) cells; experiment: Cell viability of normal ductal epithelial cells (FIG. 12D); assay type: cell-based
Gli pathway = Gli pathway in HCC (FIG. 13); assay type: cell-based
liver cancer HEP3B cells = experiment: Combination apoptosis in liver cancer HEP3B cells; assay type: cell-based; conditions: with PF05212384, listed as SST7
pancreatic cancer cells = experiment: Combination cell viability in pancreatic cancer cells (FIG. 17); assay type: cell-based, human
[15] = tested on: human prostate cancer cells; experiment: Combination cell viability in human prostate cancer cells (FIG. 16); assay type: cell-based; conditions: with PF05212384 (PI3K/mTOR dual inhibitor)
liver cancer xenograft = experiment: Xenografted tumor growth, liver cancer model (FIG. 18); assay type: in vivo
[16] = with histone deacetylase inhibitor SAHA

Compound: OC(CNc1ccc(Cl)cc1)CNc1ccc(-c2nc3ccccc3o2)cc1 (stereo not shown) [Compound 8, 1-(4-(benzo[d]oxazol-2-yl)phenylamino)-3-(4-chlorophenylamino)propane-2-ol]
- cell viability (brain cancer stem cells): inhibits cell viability
- cell viability [1]: inhibits cell viability
- cell viability, combination ([2]; with PF05212384): co-operates
- cell viability, combination [2, 16]: co-operates
- xenografted tumor growth [3]: inhibits xenografted tumor growth
- apoptosis [4]: induces apoptosis
- cell viability (human brain cancer cells): inhibits cell viability
- cell viability [5]: inhibits cell viability
- xenografted tumor growth [6]: inhibits xenografted tumor growth
- apoptosis (liver cancer HEPG2 cells): induces apoptosis
- cell viability (human normal hepatocytes): has no effect
- expression of Gli1, Patched-1, Cyclin D1, Bcl-2, and Nanog [7]: inhibits
- apoptosis, combination [8]: act in a cooperative manner to induce apoptosis
- apoptosis [9]: induces apoptosis
- apoptosis (lung cancer A549 cells): induces apoptosis
- Gli reporter activity (Gli reporter): inhibits
- apoptosis, combination [10]: synergistic; also recorded: act in a cooperative manner to induce apoptosis
- apoptosis, combination [11]: act in a cooperative manner to induce apoptosis
- cell viability [12]: inhibits cell viability
- xenografted tumor growth (breast cancer xenograft): inhibits xenografted tumor growth
- cell viability [13]: has no effect
- cell viability [14]: has no effect
- Gli pathway (Gli pathway): inhibits Gli pathway
- apoptosis, combination (liver cancer HEP3B cells): synergistic; also recorded: act in a cooperative manner to induce apoptosis
- cell viability, combination (pancreatic cancer cells; with PF05212384): co-operates
- cell viability, combination (pancreatic cancer cells; [16]): co-operates
- cell viability, combination [15]: co-operates
- xenografted tumor growth (liver cancer xenograft): inhibits xenografted tumor growth
